Laboratory results as given in US20040167034A1, “Emulsion and dispersion formulations and method” (priority 2001, published 2004).

Columns and labels:
[1] = Stability of closantel and levamisole combination at 30° C. (HPLC); type: physicochemical; conditions: closantel and levamisole combination incubated at 30° C.
Method: Stability of Closantel and Levamisole Combination at 30° C.
The mixture was analysed by HPLC at times zero, 3 and 12 months.

[2] = background statement; cited from earlier work
[3] = Pharmacokinetics of silymarin (plasma silybin a and b, HPLC); conditions: in vivo, 260 mg
Method: Pharmacokinetics of silymarin administered in various delivery systems, comparing a powdered extract of silymarin containing 28% silybin a and b and a silymarin:lecithin complex as described in Example 2 of silymarin containing the same amount of silybin a and b.
Silymarin was administered at a dose of 260 mg silybin a and b.
Blood samples were collected at 0, 2, 4, and 6 hours after administration and analysed by HPLC.
Silybin a and b were analysed as conjugated and unconjugated silybin a and b.

Row | Compound | content at 0 months [1] [g %] | content at 3 months [1] [g %] | content at 12 months [1] [g %] | absorption [2] | AUC of conjugated silybin A and B [3] [ng/h/mL] | AUC of free silybin A and B [3] [ng/h/mL]
1 | Cc1cc(C(C#N)c2ccc(Cl)cc2)c(Cl)cc1NC(=O)c1cc(I)cc(I)c1O (stereo not drawn) [closantel] | 3.75 | 3.72 | 3.69 |  |  | 
2 | [Cr] [chromium] |  |  |  | 1-3% |  | 
3 | Silymarin |  |  |  |  | 191 | 6
4 | c1ccc([C@H]2CN3CCSC3=N2)cc1 [levamisole] | 3.21 | 3.19 | 3.17 |  |  | 
